{
  "source": "BindingDB's records for patent US20230339890",
  "about": "(Kineta, 2023)",
  "data": [
    {"biological_target": "T1, Lanosterol 14-alpha demethylase (Homo sapiens, UniProt Q16850)", "T1 sequence (Q16850 whole entry)": "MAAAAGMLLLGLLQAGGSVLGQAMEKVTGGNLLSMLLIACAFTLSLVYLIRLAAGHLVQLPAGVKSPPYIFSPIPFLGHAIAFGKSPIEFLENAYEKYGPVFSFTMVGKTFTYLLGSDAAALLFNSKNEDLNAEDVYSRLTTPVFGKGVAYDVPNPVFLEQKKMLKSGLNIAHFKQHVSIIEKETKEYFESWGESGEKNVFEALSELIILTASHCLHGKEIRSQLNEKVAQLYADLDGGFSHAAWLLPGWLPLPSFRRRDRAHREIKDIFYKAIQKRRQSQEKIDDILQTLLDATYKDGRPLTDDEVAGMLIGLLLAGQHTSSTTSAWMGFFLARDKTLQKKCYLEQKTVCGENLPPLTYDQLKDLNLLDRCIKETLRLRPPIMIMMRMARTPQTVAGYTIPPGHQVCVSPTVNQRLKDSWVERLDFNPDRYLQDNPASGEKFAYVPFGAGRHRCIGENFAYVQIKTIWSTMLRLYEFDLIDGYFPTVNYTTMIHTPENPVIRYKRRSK", "assay": "Inhibition of CYP51A1", "excerpt": "Method: Recombinant human CYP51A1 (lanosterol-14a-demethylase) enzyme was coexpressed with CYP reductase in bacterial membranes and the fluorescent substrate BOMCC (a nonnatural substrate that causes increases in fluorescence upon CYP51A1-dependent demethylation) was used to obtain 8-point dose concentration-response curves for each compound.", "units": {"IC50": "µM"}, "values": [
      {"smiles": "CC(C)(C)OC(=O)NCCCCN(C[C@@H](O)c1cccnc1)C(=O)Cc1ccc(C(F)(F)F)nc1", "note": "[US20230339890, Compound 144]", "IC50": "< 0.1"},
      {"smiles": "CCC(=O)N(CCc1ccc(C(F)(F)F)nc1)C[C@@H](O)c1cccnc1", "note": "[US20230339890, Compound 30]", "IC50": "> 1"},
      {"smiles": "CC(C)(C)OC(=O)NCCCCCN(C[C@@H](O)c1cccnc1)C(=O)Cc1ccc(C#N)c(Cl)c1", "note": "[US20230339890, Compound 142]", "IC50": "< 0.1"},
      {"smiles": "CCC(=O)N(C[C@@H](O)c1cccnc1)C1CCc2cc(Cl)c(Cl)cc2C1", "note": "(some centres undefined) [US20230339890, Compound 70]", "IC50": "< 0.1"}
    ]}
  ]
}
